# Earlier results in patent US20110123622A1, “OPHTHALMIC FORMULATION AND METHOD OF MANUFACTURE THEREOF” (Inotek Pharmaceuticals Corporation, priority 2009, published 2011).
# Test system: human exhibiting elevated intraocular pressure as a result of OHT or POAG
compound,measurement,setting,value
"O=[N+]([O-])OC[C@H]1O[C@@H](n2cnc3c(NC4CCCC4)ncnc32)[C@H](O)[C@@H]1O [Compound A, ((2R,3S,4R,5R)-5-(6-(cyclopentylamino)-9H-purin-9-yl)-3,4-dihydroxytetrahydrofuran-2-yl)methyl nitrate]","reduction in IOP, comparison of dose groups","350 mcg and 700 mcg treatment groups, HPβCD formulation",greatest reduction in IOP
same,IOP upon a single application,"formulated 1:20 wt/wt in HPβCD, 2.5 to 700 micrograms per eye",statistically significant dose-related decrement in IOP
